We go through 29 compounds from patent US11161854B2, “Indazolyl-spiro[2.2]pentane-carbonitrile derivatives as LRRK2 inhibitors, pharmaceutical compositions, and uses thereof” (Merck Sharp & Dohme Corp., priority 2017, dated 2021).

SMILES strings stand for the structures. pIC50: −log10 of the molar value.

Sequence of GST-tagged truncated human mutant G2019S LRRK2 (Q5S007 970-2527 G2019S): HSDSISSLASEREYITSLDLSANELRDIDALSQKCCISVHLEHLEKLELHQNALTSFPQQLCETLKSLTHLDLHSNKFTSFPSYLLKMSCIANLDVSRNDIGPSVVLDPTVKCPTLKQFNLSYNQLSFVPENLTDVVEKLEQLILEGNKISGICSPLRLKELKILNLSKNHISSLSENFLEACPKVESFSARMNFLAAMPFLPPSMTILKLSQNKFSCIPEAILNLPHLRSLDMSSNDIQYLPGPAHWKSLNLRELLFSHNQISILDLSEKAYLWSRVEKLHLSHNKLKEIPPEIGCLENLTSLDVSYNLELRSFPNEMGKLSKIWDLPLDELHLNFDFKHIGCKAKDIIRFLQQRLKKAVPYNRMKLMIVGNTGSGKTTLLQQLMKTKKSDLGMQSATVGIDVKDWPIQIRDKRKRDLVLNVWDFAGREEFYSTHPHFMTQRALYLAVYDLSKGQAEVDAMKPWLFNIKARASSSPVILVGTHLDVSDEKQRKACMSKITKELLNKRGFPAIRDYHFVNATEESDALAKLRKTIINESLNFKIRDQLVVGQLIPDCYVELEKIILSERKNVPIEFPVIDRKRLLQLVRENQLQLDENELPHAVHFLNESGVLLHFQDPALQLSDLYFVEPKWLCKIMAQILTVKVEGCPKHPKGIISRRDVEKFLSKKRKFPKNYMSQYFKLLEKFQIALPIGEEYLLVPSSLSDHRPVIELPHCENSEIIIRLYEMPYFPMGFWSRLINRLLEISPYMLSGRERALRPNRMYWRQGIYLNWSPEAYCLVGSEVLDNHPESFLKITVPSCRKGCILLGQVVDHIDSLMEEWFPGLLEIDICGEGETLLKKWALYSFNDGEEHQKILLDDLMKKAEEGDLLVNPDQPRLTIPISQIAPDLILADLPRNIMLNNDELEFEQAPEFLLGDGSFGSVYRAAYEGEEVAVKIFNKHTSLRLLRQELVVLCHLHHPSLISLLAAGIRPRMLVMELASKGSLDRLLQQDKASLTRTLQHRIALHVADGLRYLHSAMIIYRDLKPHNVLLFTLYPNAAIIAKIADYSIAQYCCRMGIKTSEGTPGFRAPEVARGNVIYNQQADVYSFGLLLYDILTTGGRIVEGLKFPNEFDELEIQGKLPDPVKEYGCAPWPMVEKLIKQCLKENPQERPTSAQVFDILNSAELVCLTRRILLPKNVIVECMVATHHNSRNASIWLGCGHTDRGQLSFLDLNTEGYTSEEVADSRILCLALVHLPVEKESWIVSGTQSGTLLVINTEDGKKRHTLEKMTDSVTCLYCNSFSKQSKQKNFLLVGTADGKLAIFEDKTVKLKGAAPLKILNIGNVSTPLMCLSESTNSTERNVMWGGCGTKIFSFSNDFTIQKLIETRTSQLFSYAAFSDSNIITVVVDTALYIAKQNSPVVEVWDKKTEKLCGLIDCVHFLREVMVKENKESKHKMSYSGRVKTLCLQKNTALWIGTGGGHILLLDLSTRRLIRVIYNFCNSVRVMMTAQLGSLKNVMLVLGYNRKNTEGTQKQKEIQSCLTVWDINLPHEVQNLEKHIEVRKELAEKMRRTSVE

The target in this test is GST-tagged truncated human mutant G2019S LRRK2 (Homo sapiens (Human), UniProt Q5S007, G2019S). Nature of the test: LRRK2 G2019S Km ATP LanthaScreen Assay. In kind it is biochemical. As to conditions: 134 μM ATP (Km ATP); fluorescein-labeled LRRKtide substrate; mean IC50 values. As for the experimental part:
The IC50 values reported herein were measured as follows.
Biological Assay: LRRK2 Km ATP LanthaScreen™ Assay
The data presented for the Km ATP LanthaScreen™ Assay represents mean IC50 values based on several test results and may have reasonable deviations depending on the specific conditions and reagents used. Assays were performed in the presence of 134 μM ATP (Km ATP). Upon completion, the assay was stopped and phosphorylated substrate detected with a terbium (Tb)-labeled anti-pERM antibody (cat. no. PV4898). The compound dose response was prepared by diluting a 10 mM stock of compound to a maximum concentration of […] in 100% dimethylsulfoxide followed by custom fold serial dilution in dimethylsulfoxide nine times. Twenty nanoliters of each dilution was spotted via a Labcyte Echo onto a 384-well black-sided plate (Corning 3575) followed by 15 μl of a 1.25 nM enzyme solution in 1× assay buffer (50 mM Tris pH 8.5, 10 mM MgCl2, 0.01% Brij-35, 1 mM EGTA, 2 mM dithiothreitol, 0.05 mM sodium orthovanadate). Following a 15-minute incubation at room temperature, the kinase reaction was started with the addition of 5 μl of 400 nM fluorescein-labeled LRRKtide peptide substrate and 134 μM ATP solution in 1× assay buffer. The reaction was allowed to progress at ambient temperature for 90 minutes. The reaction was then stopped by the addition of 20 μl of TR-FRET Dilution Buffer (Life Technologies, Carlsbad, Calif.) containing 2 nM Tb-labeled anti-phospho LRRKtide antibody and 10 mM EDTA (Life Technologies, Carlsbad, Calif.). After an incubation of 1 hour at room temperature, the plate was read on an EnVision multimode plate reader (Perkin Elmer, Waltham, Mass.) with an excitation wavelength of 337 nm (Laser) and a reading emission at both 520 and 495 nm. […] Abase uses a 4 parameter (4P) logistic fit based on the Levenberg-Marquardt algorithm.
On the technique in general: TR-FRET usually uses a lanthanide donor and a delayed reading to cut background.
What is called pIC50 is −log10 of the IC50, conventionally taken in molar units. A lower pIC50 goes with a large IC50. In turn, `COC1(C(C)(C)O)CCN(c2cc(-n3ncc4ccc([C@]5(C#N)CC56CC6)cc43)ncn2)C1` (single isomer, unassigned) [Example 3.10-4] had a negative-log IC50 (pIC50) of 9.05.

Consider `N#C[C@]1(c2ccc3cnn(-c4cc(N5CC(O)C6(CC6)C5)ncn4)c3c2)CC12CC2` (single isomer, unassigned) [Example 3.11-1], for which the pIC50 is 8.17.

Compound `N#C[C@@]1(c2ccc3cnn(-c4cc(N5CC(O)C6(CC6)C5)ncn4)c3c2)CC12CC2` (single isomer, unassigned) [Example 3.11-2] had a pIC50 of 8.85.

In turn, `N#C[C@]1(c2ccc3cnn(-c4cc(N5CC(O)C6(CC6)C5)ncn4)c3c2)CC12CC2` (single isomer, unassigned) [Example 3.11-3] gave a pIC50 of 8.20.

In the case of `N#C[C@@]1(c2ccc3cnn(-c4cc(N5CC(O)C6(CC6)C5)ncn4)c3c2)CC12CC2` (single isomer, unassigned) [Example 3.11-4], the pIC50 is 9.22. Compared with the last compound, the pIC50 is 1.02 log units higher.

In turn, `CC(C)(O)C1CN(c2cc(-n3ncc4ccc([C@]5(C#N)CC56CC6)cc43)ncn2)CCO1` (single isomer, unassigned) [Example 4.3-1, 1-(1-(6-(2-(2-hydroxypropan-2-yl)morpholino)pyrimidin-4-yl)-1H-indazol-6-yl)spiro[2.2]pentane-1-carbonitrile] gave a negative-log IC50 (pIC50) of 8.74.

Compound `CC(C)(O)C1CN(c2cc(-n3ncc4ccc([C@]5(C#N)CC56CC6)cc43)ncn2)CCO1` (single isomer, unassigned) [Example 4.3-2, 1-(1-(6-(2-(2-hydroxypropan-2-yl)morpholino)pyrimidin-4-yl)-1H-indazol-6-yl)spiro[2.2]pentane-1-carbonitrile] gave a pIC50 of 9.22.

On to `CC(C)(O)C12CC(C1)N(c1cc(-n3ncc4c(F)cc(C5(C#N)CC56CC6)cc43)ncn1)C2` (single isomer, unassigned) [Example 4.15-1], for which the pIC50 was 7.74.

Turning to `CC(C)(O)C12CC(C1)N(c1cc(-n3ncc4c(F)cc(C5(C#N)CC56CC6)cc43)ncn1)C2` (single isomer, unassigned) [Example 4.15-2], the pIC50 was 8.64.

As for `CC(C)(O)C12CC(C1)N(c1cc(-n3ncc4cnc(C5(C#N)CC56CC6)cc43)ncn1)C2` (single isomer, unassigned) [Example 5.2-1, 1-(1-(6-(4-(2-hydroxypropan-2-yl)-2-azabicyclo[2.1.1]hexan-2-yl)pyrimidin-4-yl)-1H-pyrazolo[4,3-c]pyridin-6-yl)spiro[2.2]pentane-1-carbonitrile], the negative-log IC50 (pIC50) was 8.04. This pIC50 lies 0.60 log units lower than the previous one.

On to `CC(C)(O)C12CC(C1)N(c1cc(-n3ncc4cnc(C5(C#N)CC56CC6)cc43)ncn1)C2` (single isomer, unassigned) [Example 5.2-2, 1-(1-(6-(4-(2-hydroxypropan-2-yl)-2-azabicyclo[2.1.1]hexan-2-yl)pyrimidin-4-yl)-1H-pyrazolo[4,3-c]pyridin-6-yl)spiro[2.2]pentane-1-carbonitrile], for which the pIC50 was 8.77. Compared with the last compound, the pIC50 is 0.73 log units higher.

On to `CC(C)(O)[C@@H]1CCN(c2cc(-n3ncc4cnc(C5(C#N)CC56CC6)cc43)ncn2)C1` (single isomer, unassigned) [Example 5.3-1], for which the pIC50 was 8.12.

As for `CC(C)(O)[C@@H]1CCN(c2cc(-n3ncc4cnc(C5(C#N)CC56CC6)cc43)ncn2)C1` (single isomer, unassigned) [Example 5.3-2], the negative logarithm of the IC50 (pIC50) is 9.15.

For `C[C@@H]1CN(c2cc(-n3ncc4cnc(C5(C#N)CC56CC6)cc43)ncn2)C[C@H](C)[C@]1(C)O` (single isomer, unassigned) [Example 5.4-1], the pIC50 is 7.82.

On to `C[C@@H]1CN(c2cc(-n3ncc4cnc(C5(C#N)CC56CC6)cc43)ncn2)C[C@H](C)[C@]1(C)O` (single isomer, unassigned) [Example 5.4-2], for which the negative logarithm of the IC50 (pIC50) is 8.59. This pIC50 is 0.77 log units higher than that of the compound before.

As to `CC(C)(O)C12CC(C1)N(c1cc(-n3ncc4cc(F)c(C5(C#N)CC56CC6)cc43)ncn1)C2` (single isomer, unassigned) [Example 5.5-1, 1-(5-fluoro-1-(6-(4-(2-hydroxypropan-2-yl)-2-azabicyclo[2.1.1]hexan-2-yl)pyrimidin-4-yl)-1H-indazol-6-yl)spiro[2.2]pentane-1-carbonitrile], the pIC50 was 8.41. This pIC50 and that of the compound before are within 0.2 log units of each other.

With `CC(C)(O)C12CC(C1)N(c1cc(-n3ncc4cc(F)c(C5(C#N)CC56CC6)cc43)ncn1)C2` (single isomer, unassigned) [Example 5.5-2, 1-(5-fluoro-1-(6-(4-(2-hydroxypropan-2-yl)-2-azabicyclo[2.1.1]hexan-2-yl)pyrimidin-4-yl)-1H-indazol-6-yl)spiro[2.2]pentane-1-carbonitrile], the negative logarithm of the IC50 (pIC50) was 7.50. This pIC50 lies 0.91 log units lower than the previous one.

As to `Cc1nc(N2CC3(C(C)(C)O)CC2C3)cc(-n2ncc3cc(F)c(C4(C#N)CC45CC5)cc32)n1` (single isomer, unassigned) [Example 5.6-1, 1-(5-fluoro-1-(6-(4-(2-hydroxypropan-2-yl)-2-azabicyclo[2.1.1]hexan-2-yl)-2-methylpyrimidin-4-yl)-1H-indazol-6-yl)spiro[2.2]pentane-1-carbonitrile], the pIC50 was 7.68.

As to `Cc1nc(N2CC3(C(C)(C)O)CC2C3)cc(-n2ncc3cc(F)c(C4(C#N)CC45CC5)cc32)n1` (single isomer, unassigned) [Example 5.6-2, 1-(5-fluoro-1-(6-(4-(2-hydroxypropan-2-yl)-2-azabicyclo[2.1.1]hexan-2-yl)-2-methylpyrimidin-4-yl)-1H-indazol-6-yl)spiro[2.2]pentane-1-carbonitrile], the pIC50 is 8.89.

For `CC(C)(O)[C@@H]1CCN(c2cc(-n3ncc4cc(F)c(C5(C#N)CC56CC6)cc43)ncn2)C1` (single isomer, unassigned) [Example 5.7-1], the pIC50 is 7.66. This pIC50 is 1.23 log units lower than that of the compound before.

With `CC(C)(O)[C@@H]1CCN(c2cc(-n3ncc4cc(F)c(C5(C#N)CC56CC6)cc43)ncn2)C1` (single isomer, unassigned) [Example 5.7-2], the negative logarithm of the IC50 (pIC50) was 8.59. Against the preceding compound, the pIC50 is 0.93 log units higher.

As for `CC(C)(O)C12CC(C1)N(c1cc(-n3ncc4ccc(C5(C#N)CC56CC6)cc43)ccn1)C2` (single isomer, unassigned) [Example 6.1, (R or S)-1-(1-(2-(4-(2-hydroxypropan-2-yl)-2-azabicyclo[2.1.1]hexan-2-yl)pyridin-4-yl)-1H-indazol-6-yl)spiro[2.2]pentane-1-carbonitrile], the negative-log IC50 (pIC50) is 8.92.

In turn, `CC(C)(O)[C@@H]1CCN(c2cc(-n3ncc4cnc(C5(C#N)CC56CC6)cc43)ccn2)C1` (single isomer, unassigned) [Example 6.6-1] had a pIC50 of 7.55.

`CC(C)(O)[C@@H]1CCN(c2cc(-n3ncc4cnc(C5(C#N)CC56CC6)cc43)ccn2)C1` (single isomer, unassigned) [Example 6.6-2] gave a negative logarithm of the IC50 (pIC50) of 8.47.

In the case of `CC(C)(O)C12CC(C1)N(c1cc(-n3ncc4cnc(C5(C#N)CC56CC6)cc43)ccn1)C2` (single isomer, unassigned) [Example 6.7-1, 1-(1-(2-(4-(2-hydroxypropan-2-yl)-2-azabicyclo[2.1.1]hexan-2-yl)pyridin-4-yl)-1H-pyrazolo[4,3-c]pyridin-6-yl)spiro[2.2]pentane-1-carbonitrile], the negative-log IC50 (pIC50) is 7.23.

`CC(C)(O)C12CC(C1)N(c1cc(-n3ncc4cnc(C5(C#N)CC56CC6)cc43)ccn1)C2` (single isomer, unassigned) [Example 6.7-2, 1-(1-(2-(4-(2-hydroxypropan-2-yl)-2-azabicyclo[2.1.1]hexan-2-yl)pyridin-4-yl)-1H-pyrazolo[4,3-c]pyridin-6-yl)spiro[2.2]pentane-1-carbonitrile] gave a negative-log IC50 (pIC50) of 8.11.

As to `Cc1cc(-n2ncc3ccc(C4(C#N)CC45CC5)cc32)cc(N2CC3(C(C)(C)O)CC2C3)n1` (single isomer, unassigned) [Example 7.3-1, (R or S)-1-(1-(2-(4-(2-hydroxypropan-2-yl)-2-azabicyclo[2.1.1]hexan-2-yl)-6-methylpyridin-4-yl)-1H-indazol-6-yl)spiro[2.2]pentane-1-carbonitrile], the negative logarithm of the IC50 (pIC50) was 7.27.

In turn, `Cc1cc(-n2ncc3ccc(C4(C#N)CC45CC5)cc32)cc(N2CC3(C(C)(C)O)CC2C3)n1` (single isomer, unassigned) [Example 7.3-2, (R or S)-1-(1-(2-(4-(2-hydroxypropan-2-yl)-2-azabicyclo[2.1.1]hexan-2-yl)-6-methylpyridin-4-yl)-1H-indazol-6-yl)spiro[2.2]pentane-1-carbonitrile] had a pIC50 of 8.34.

As for `CC(C)(O)C12CC(C1)N(c1cc(-n3ncc4ccc(C5(C#N)CC56CC6)cc43)cnn1)C2` (single isomer, unassigned) [Example 10.3-1, (R or S)-1-(1-(6-(4-(2-hydroxypropan-2-yl)-2-azabicyclo[2.1.1]hexan-2-yl)pyridazin-4-yl)-1H-indazol-6-yl)spiro[2.2]pentane-1-carbonitrile], the pIC50 was 7.45. Against the preceding compound, the pIC50 is 0.89 log units lower.
